ChEMBL document CHEMBL1146817, “Quinoxaline N,N'-dioxide derivatives and related compounds as growth inhibitors of Trypanosoma cruzi. Structure-activity relationships” (Bioorg Med Chem Lett, 2004)
Calls of active or inactive are those of the source. No cut-off for these calls is given here.

Key:
Assay type in all cases: functional
[1] = system: Trypanosoma cruzi; experiment: In vitro inhibitory dose against epimastigote form of Trypanosoma cruzi Tulahuen strain; conditions: read-out: ID50 (the source's name)
[2] = system: Trypanosoma cruzi; experiment: In vitro percent inhibition of growth against epimastigote form of Trypanosoma cruzi (Tulahuen strain) at 25 uM
[3] = system: Trypanosoma cruzi; experiment: In vitro inhibitory dose against epimastigote form of Trypanosoma cruzi Brener strain; conditions: read-out: ID50 (the source's name)
[4] = molecular target: T1, Glutathione reductase, mitochondrial (Homo sapiens) (UniProt P00390); experiment: In vitro inhibition against human glutathione reductase; IA denotes inactive
T1 sequence (whole entry): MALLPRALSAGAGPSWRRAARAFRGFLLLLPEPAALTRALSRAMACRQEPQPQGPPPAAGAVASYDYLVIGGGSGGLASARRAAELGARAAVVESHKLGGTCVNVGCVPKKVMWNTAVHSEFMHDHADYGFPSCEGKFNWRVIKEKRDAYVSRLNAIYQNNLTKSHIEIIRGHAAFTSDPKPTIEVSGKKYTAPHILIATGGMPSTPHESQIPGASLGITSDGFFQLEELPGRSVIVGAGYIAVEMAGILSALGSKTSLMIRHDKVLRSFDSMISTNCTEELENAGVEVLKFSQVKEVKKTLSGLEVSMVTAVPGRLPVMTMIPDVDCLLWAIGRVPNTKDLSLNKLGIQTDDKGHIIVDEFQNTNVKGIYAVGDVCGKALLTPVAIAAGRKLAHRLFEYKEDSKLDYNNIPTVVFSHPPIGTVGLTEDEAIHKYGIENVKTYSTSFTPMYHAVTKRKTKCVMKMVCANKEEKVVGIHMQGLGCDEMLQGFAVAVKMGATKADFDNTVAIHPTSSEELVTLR

Compound | PGI [2] | also measured
Cc1cc2c(cc1Sc1ccccc1)[n+]([O-])c1cc(Cl)c(Cl)cc1[n+]2[O-] | 93% | IC50 [1]: 6.5 µM; IC50 [3]: 4.5 µM
COC(=O)N/N=C/c1ccc2c(c1)[n+]([O-])c1cc(C#N)c(N)cc1[n+]2[O-] | 19% | 
N#Cc1cc2c(cc1N1CCN(Cc3ccc4c(c3)OCO4)CC1)[n+]([O-])c1ccc(Cl)cc1[n+]2[O-] | 33% | 
N#Cc1cc2c(cc1N1CCN(c3ccc([N+](=O)[O-])cc3)CC1)[n+]([O-])c1ccc(Cl)cc1[n+]2[O-] | 3% | 
Cc1cc2c(cc1C(=O)c1ccccc1)[n+]([O-])c1cc(Cl)c(Cl)cc1[n+]2[O-] | 91% | IC50 [1]: 11.8 µM; IC50 [3]: 12.5 µM
Cc1ccc2nc3cc(N)c(C#N)cc3nc2c1 | 0% | 
Cc1cc2c(cc1C)[n+]([O-])c1cc(C(=O)N3CCN(c4ccccc4)CC3)c(C)cc1[n+]2[O-] | 0% | 
N#Cc1cc2c(cc1N)[n+]([O-])c1ccccc1[n+]2[O-] | 25% | 
CN(C)CCCNc1cc2c(cc1C#N)[n+]([O-])c1cc(Cl)ccc1[n+]2[O-] | 16% | 
N#Cc1cc2c(cc1Nc1ccccc1)[n+]([O-])c1ccc(Cl)cc1[n+]2[O-] | 63% | 
COc1ccc2c(c1)[n+]([O-])c1cc(C#N)c(N)cc1[n+]2[O-] | 25% | 
COc1ccc2[nH]c3nnc(N)c-3nc2c1 | 0% | 
CC(=O)c1cc2c(cc1C)[n+]([O-])c1cc(F)ccc1[n+]2[O-] | 22% | 
CCN(CC)CCCC(C)Nc1c2ccc(Cl)cc2nc2ccc(OC)cc12 (stereo not drawn) |  | inhibition [4]: inactive
Cc1cc2c(cc1C)[n+]([O-])c1cc(C(=O)N3CCN(c4ccc([N+](=O)[O-])cc4)CC3)c(C)cc1[n+]2[O-] | 1% | 
Nc1nc(N)c2nc3ccccc3nc2n1 | 0% | 
c1ccc(CNc2nc(NCc3ccccc3)c3nc4ccccc4nc3n2)cc1 | 31% | 
N#Cc1cc2c(cc1N)[n+]([O-])c1cc(Cl)c(Cl)cc1[n+]2[O-] | 25% | 

Compound | PGI [2] | also measured
COC(=O)N/N=C/c1ccc2c(c1)[n+]([O-])c1cc(C)c(C)cc1[n+]2[O-] | 28% | 
COc1ccccc1N1CCN(c2cc3c(cc2C#N)[n+]([O-])c2cc(Cl)ccc2[n+]3[O-])CC1 | 100% | IC50 [1]: 6.5 µM; IC50 [3]: 9.5 µM
Cc1cc2c(cc1C)[n+]([O-])c1cc(/C=N/NC(=O)NCCc3ccccc3)ccc1[n+]2[O-] | 17% | 
Cc1cc2c(cc1C(=O)N1CCN(c3ccccc3)CC1)[n+]([O-])c1cc(Cl)c(Cl)cc1[n+]2[O-] | 47% | 
Cc1ccc(Nc2cc3c(cc2C#N)[n+]([O-])c2cc(Cl)ccc2[n+]3[O-])cc1 | 19% | 
Cc1cc2c(cc1C)[n+]([O-])c1cc(N3CCN(c4ccc([N+](=O)[O-])cc4)CC3)c(C#N)cc1[n+]2[O-] | 0% | 
CC(=O)c1cc2c(cc1C)[n+]([O-])c1cc(Cl)ccc1[n+]2[O-] | 51% | 
COCCNC(=O)N/N=C/c1ccc2c(c1)[n+]([O-])c1cc(C#N)c(N)cc1[n+]2[O-] | 20% | 
COc1ccc2c(c1)[n+]([O-])c1cc(C#N)c(N3CCN(c4ccc([N+](=O)[O-])cc4)CC3)cc1[n+]2[O-] | 19% | 
CC1CS(=O)(=O)CCN1/N=C/c1ccc([N+](=O)[O-])o1 (stereo not drawn) [NIFURTIMOX] |  | IC50 [1]: 7.7 µM; IC50 [3]: 3.4 µM
N#Cc1cc2nc3cc(Cl)ccc3nc2cc1Cl | 100% | IC50 [1]: 4.5 µM; IC50 [3]: 3 µM
Cc1cc2c(cc1C)[n+]([O-])c1cc(NCCCN(C)C)c(C#N)cc1[n+]2[O-] | 1% | 
COc1cc2c(cc1Cl)[n+]([O-])c1cc(N3CCN(c4ccc([N+](=O)[O-])cc4)CC3)c(C#N)cc1[n+]2[O-] | 6% | 
Cc1ccc2c(c1)[n+]([O-])c1cc(C#N)c(N)cc1[n+]2[O-] | 5% | 
N#Cc1cc2c(cc1N)[n+]([O-])c1ccc(/C=N/NC(=O)NCCc3ccccc3)cc1[n+]2[O-] | 11% | 
Cc1cc2nc3cc(Cl)c(C#N)cc3nc2cc1C | 81% | IC50 [1]: 19.6 µM; IC50 [3]: 3 µM
N#Cc1cc2c(cc1N1CCN(c3cccc(C(F)(F)F)c3)CC1)[n+]([O-])c1ccc(Cl)cc1[n+]2[O-] | 94% | IC50 [1]: 6.7 µM; IC50 [3]: 7 µM
